Assay results published in US20220242844A1, “CANNABINOID DERIVATIVES” (CANOPY GROWTH CORPORATION, priority 2019, published 2022).
pIC50: −log10 of the molar value. Read-outs that look alike come from different tables or passages of the source.

How the values were obtained:
human CB1 receptor = target: T1, human CB1 receptor (Homo sapiens, UniProt P21554); assay: CB1 radioligand ([3H]CP 55,940) competitive binding assay; settings: for Selectivity CB1: fold difference in binding affinity, CB1 over CB2, 1.00 = about the same affinity for both receptors
T1 construct: host or cells: CHO-K1 (Chinese hamster ovary) cells, stably transfected; membranes prepared in house

human CB2 receptor = target: T2, human CB2 receptor (Homo sapiens, UniProt P34972); assay: CB2 radioligand ([3H]CP 55,940) competitive binding assay; settings: for Selectivity CB2: fold difference in binding affinity, CB2 over CB1, 1.00 = about the same affinity for both receptors
T2 construct: host or cells: CHO-K1 (Chinese hamster ovary) cells, stably transfected; membranes prepared in house

[1] = [3H]CP 55,940 displacement, membranes of CHO-K1 cells expressing human CB1 receptor, read-out: CB1 IC50
[2] = [3H]CP 55,940 displacement, membranes of CHO-K1 cells expressing human CB2 receptor, read-out: CB2 IC50

T2 sequence (P34972 whole entry): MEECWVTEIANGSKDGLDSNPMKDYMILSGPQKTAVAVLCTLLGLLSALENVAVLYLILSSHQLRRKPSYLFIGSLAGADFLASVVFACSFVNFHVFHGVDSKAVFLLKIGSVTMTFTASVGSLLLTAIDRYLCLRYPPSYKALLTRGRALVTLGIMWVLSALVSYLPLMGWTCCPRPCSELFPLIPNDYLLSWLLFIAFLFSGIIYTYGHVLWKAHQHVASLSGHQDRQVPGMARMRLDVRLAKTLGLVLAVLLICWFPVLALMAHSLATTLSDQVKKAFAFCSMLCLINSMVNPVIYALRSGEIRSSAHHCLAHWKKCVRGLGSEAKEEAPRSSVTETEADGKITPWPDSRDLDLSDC
T1 sequence (P21554 whole entry): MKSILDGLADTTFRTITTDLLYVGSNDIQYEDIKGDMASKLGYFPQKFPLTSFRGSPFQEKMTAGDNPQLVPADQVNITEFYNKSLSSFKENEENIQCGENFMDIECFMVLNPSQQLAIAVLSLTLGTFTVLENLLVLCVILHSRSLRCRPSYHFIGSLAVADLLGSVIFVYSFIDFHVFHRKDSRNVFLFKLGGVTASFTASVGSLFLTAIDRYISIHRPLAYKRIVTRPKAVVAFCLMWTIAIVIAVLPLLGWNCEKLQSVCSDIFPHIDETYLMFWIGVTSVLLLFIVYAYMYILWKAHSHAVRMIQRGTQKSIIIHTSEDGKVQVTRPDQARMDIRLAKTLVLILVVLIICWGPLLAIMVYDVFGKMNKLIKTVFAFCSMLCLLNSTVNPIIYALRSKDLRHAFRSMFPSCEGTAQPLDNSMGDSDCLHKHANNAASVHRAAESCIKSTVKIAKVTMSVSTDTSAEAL

Structure (SMILES) | pIC50 (human CB1 receptor; [1]) | Selectivity CB1 (human CB1 receptor) [fold] | pIC50 (human CB2 receptor; [2]) | Selectivity CB2 (human CB2 receptor) [fold] | pIC50 (human CB1 receptor) | pIC50 (human CB2 receptor)
C=C(C)[C@@H]1CCC(C)=C[C@H]1c1c(O)cc(CCC)c2c1OCOC2=O [Compound 23d, 7-hydroxy-8-(3-methyl-6-(prop-1-en-2-yl)cyclohex-2-en-1-yl)-5-propyl-4H-benzo[d][1,3]dioxin-4-one] | 5.00 to 6.00 | 1.00 | 5.00 to 6.00 | 1.00 | – | –
CCCCCc1cc(O)c(-c2cccc(C)c2)c2c1C(=O)OC(CC(C)=O)(c1ccccc1)O2 (centres unmarked) [Compound 12a, 2-acetonyl-7-hydroxy-8-(m-tolyl)-5-pentyl-2-phenyl-1,3-benzodioxin-4-one] | – | – | – | 1.53 | < 4.70 | 4.70 to 5.00
C=C(C)[C@@H]1CCC(C)=C[C@H]1c1c(O)cc(CCCCC)c2c1OCOC2=O [Compound 1d, 7-hydroxy-8-(3-methyl-6-(prop-1-en-2-yl)cyclohex-2-en-1-yl)-5-pentyl-4H-benzo[d][1,3]dioxin-4-one] | 5.00 to 6.00 | 1.00 | 5.00 to 6.00 | 1.00 | – | –
C=C(C)C1CCC(C)=CC1c1c(O)cc(CCCCC)c2c1OC(c1ccccc1)OC2=O (centres unmarked) [Compound 3d, 7-hydroxy-8-(3-methyl-6-(prop-1-en-2-yl)cyclohex-2-en-1-yl)-5-pentyl-2-phenyl-4H-benzo[d][1,3]dioxin-4-one] | > 6.00 | 2.53 | 5.00 to 6.00 | – | – | –
CCCCCc1cc(O)c(C2C=C(C)CCC2)c2c1C(=O)OC(CC(C)=O)O2 (centres unmarked) [Compound 14c, 7-hydroxy-8-(3-methylcyclohex-2-en-1-yl)-2-(2-oxopropyl)-5-pentyl-4H-benzo[d][1,3]dioxin-4-one] | 5.00 to 6.00 | – | 5.00 to 6.00 | 2.06 | – | –
CCCCCc1cc(O)c(C2C=C(C)CCC2)c2c1C(=O)OC1(CCCC1)O2 (centres unmarked) [Compound 9c, 7-hydroxy-8-(3-methylcyclohex-2-en-1-yl)-5-pentyl-spiro[1,3-benzodioxine-2,1′-cyclopentane]-4-one] | – | – | – | 3.32 | 4.70 to 5.00 | 5.00 to 6.00
C=C(C)[C@@H]1CCC(C)=C[C@H]1c1c(O)cc(CCCCC)c2c1OC(CC)OC2=O (some centres unmarked) [Compound 17d, 2-ethyl-7-hydroxy-8-(3-methyl-6-(prop-1-en-2-yl)cyclohex-2-en-1-yl)-5-pentyl-4H-benzo[d][1,3]dioxin-4-one] | 5.00 to 6.00 | – | > 6.00 | 4.35 | – | –
C=C(C)[C@@H]1CCC(C)=C[C@H]1c1c(O)cc(CCCCC)c2c1OC(CC(C)=O)OC2=O (some centres unmarked) [Compound 14d, 7-hydroxy-8-(3-methyl-6-(prop-1-en-2-yl)cyclohex-2-en-1-yl)-2-(2-oxopropyl)-5-pentyl-4H-benzo[d][1,3]dioxin-4-one] | 4.70 to 5.00 | – | 5.00 to 6.00 | 4.92 | – | –
CCCCCc1cc(O)c(C2C=C(C)CCC2)c2c1C(=O)OCO2 (centres unmarked) [Compound 1c, 7-hydroxy-8-(3-methylcyclohex-2-en-1-yl)-5-pentyl-4H-benzo[d][1,3]dioxin-4-one] | – | – | 5.00 to 6.00 | – | – | –
C=C(C)[C@@H]1CCC(C)=C[C@H]1c1c(O)cc(CCC)c2c1OC(CC(C)=O)(c1ccccc1)OC2=O (some centres unmarked) [Compound 24d, 7-hydroxy-8-(3-methyl-6-(prop-1-en-2-yl)cyclohex-2-en-1-yl)-2-(2-oxopropyl)-2-phenyl-5-propyl-4H-benzo[d][1,3]dioxin-4-one] | – | 1.00 | – | 1.00 | 5.00 to 6.00 | 5.00 to 6.00
CCCCCc1cc(O)c(C2C=C(C)CCC2)c2c1C(=O)OC(CC(C)=O)(c1ccccc1)O2 (centres unmarked) [Compound 12c, 7-hydroxy-8-(3-methylcyclohex-2-en-1-yl)-2-(2-oxopropyl)-5-pentyl-2-phenyl-4H-benzo[d][1,3]dioxin-4-one] | – | – | – | 1.37 | 5.00 to 6.00 | 5.00 to 6.00
CCCCCc1cc(O)c(C2C=C(C)CCC2)c2c1C(=O)OC(C)(C)O2 (centres unmarked) [Compound 2c, 7-hydroxy-2,2-dimethyl-8-(3-methylcyclohex-2-en-1-yl)-5-pentyl-4H-benzo[d][1,3]dioxin-4-one] | – | 2.76 | – | – | 5.00 to 6.00 | 4.70 to 5.00
C=C(C)[C@@H]1CCC(C)=C[C@H]1c1c(O)cc(CCCCC)c2c1OC(C)(COC)OC2=O (some centres unmarked) [Compound 11d, 7-hydroxy-2-(methoxymethyl)-2-methyl-8-(3-methyl-6-(prop-1-en-2-yl)cyclohex-2-en-1-yl)-5-pentyl-4H-benzo[d][1,3]dioxin-4-one] | – | – | – | 1.89 | < 4.70 | 4.70 to 5.00
C=C(C)C1CCC(C)=CC1c1c(O)cc(CCCCC)c2c1OC(C)(CC(C)=O)OC2=O (centres unmarked) [Compound 7d, 7-hydroxy-2-methyl-8-(3-methyl-6-(prop-1-en-2-yl)cyclohex-2-en-1-yl)-2-(2-oxopropyl)-5-pentyl-4H-benzo[d][1,3]dioxin-4-one] | – | – | – | 13.33 | < 4.70 | 5.00 to 6.00
C=C(C)[C@@H]1CCC(C)=C[C@H]1c1c(O)cc(CCCCC)c2c1OC(CC(C)=O)(c1ccccc1)OC2=O (some centres unmarked) [Compound 12d, 7-hydroxy-8-(3-methyl-6-(prop-1-en-2-yl)cyclohex-2-en-1-yl)-2-(2-oxopropyl)-5-pentyl-2-phenyl-4H-benzo[d][1,3]dioxin-4-one] | – | 1.00 | – | 1.00 | 5.00 to 6.00 | 5.00 to 6.00
C=C(C)[C@@H]1CCC(C)=C[C@H]1c1c(O)cc(CCCCC)c2c1OC(C)OC2=O (some centres unmarked) [Compound 16d, 7-hydroxy-2-methyl-8-(3-methyl-6-(prop-1-en-2-yl)cyclohex-2-en-1-yl)-5-pentyl-4H-benzo[d][1,3]dioxin-4-one] | – | – | – | 2.44 | 5.00 to 6.00 | 5.00 to 6.00
CCCCCc1cc(O)c(-c2cccc(C)c2)c2c1C(=O)OC(C)(C)O2 [Compound 2a, 7-hydroxy-2,2-dimethyl-8-(m-tolyl)-5-pentyl-1,3-benzodioxin-4-one] | 4.70 to 5.00 | – | 5.00 to 6.00 | 3.08 | – | –
C=C(C)[C@@H]1CCC(C)=C[C@H]1c1c(O)cc(CCCCC)c2c1OC(C)(C)OC2=O [Compound 2d, 7-hydroxy-2,2-dimethyl-8-(3-methyl-6-(prop-1-en-2-yl)cyclohex-2-en-1-yl)-5-pentyl-4H-benzo[d][1,3]dioxin-4-one] | < 4.70 | – | 4.70 to 5.00 | 2.00 | – | –
